Measurements published in the NIST ThermoML archive (doi:10.1016/j.jct.2019.06.022).

Test: mn = molality of the nth substance listed, in mol/kg
Conditions: 298.15 K, 101.3 kPa, Liquid; for binary diffusion coefficient: Taylor dispersion method; for mass density: Vibrating tube method

O=C([O-])c1ccccc1O.[Na+] [sodium salicylate] + O
Conditions	binary diffusion coefficient [m2/s]	mass density [kg/m3]
m1 = 0.001004	1.06e-09	996.965
m1 = 0.002502	1.05e-09	997.145
m1 = 0.005026	1.04e-09	997.318
m1 = 0.007532	1.02e-09	997.434
m1 = 0.01004	1.02e-09	997.909
m1 = 0.05045	–	999.801
m1 = 0.1014	–	1003.01
